Where two headings read alike, the source gives them in different places.
Key:
[1] = test system: human breast cancer cell line ZR-75-1; experiment: Assay for cell growth inhibitory activity (3D hydrogel culture, CCK-8); assay type: cell-based; details: 96 h; for viability at 0.0001 µM: ZR-75-1, 0.1 nM, read-out: Cell survival rate at example drug concentration 0.1 nM; for viability at 0.001 µM: ZR-75-1, 1 nM, read-out: Cell survival rate at example drug concentration 1 nM; for viability at 0.01 µM: ZR-75-1, 10 nM, read-out: Cell survival rate at example drug concentration 10 nM; for viability at 0.1 µM: ZR-75-1, 100 nM, read-out: Cell survival rate at example drug concentration 100 nM; for viability at 1 µM: ZR-75-1, 1000 nM, read-out: Cell survival rate at example drug concentration 1000 nM
Experimental: The human breast cancer cell line ZR-75-1 (1 × 10^^6 cells per cell culture dish with 100-mm diameter) was cultured in a 1640 culture medium, and 1% double antibiotics (streptomycin and penicillin), 10% fetal bovine serum (FBS), and 1% glutamine (Glumax) were added simultaneously. The cell culture dish was placed at 37 °C with 5% CO2 for 2 days for culture until the cell confluence reached 80%-90% to give cells in the logarithmic growth phase.
• 1) The example compounds were each dissolved in dimethylsulfoxide to give solutions at a concentration of 10 mmol/L, and the solutions were diluted to 250 µmol/L in 10-fold gradient for 5 concentrations, i.e., 0.2 nmol/L, 2 nmol/L, 20 nmol/L, 200 nmol/L, and 2000 nmol/L. • 2) Blank control wells were prepared by adding 0.1% dimethylsulfoxide to the cultured cells, and were used as high-reading control wells; cell-free 3D hydrogel was used as background wells. • 3) The cultured cells were separately added to the compounds in the examples at 0.2 nmol/L, 2 nmol/L, 20 nmol/L, 200 nmol/L, and 2000 nmol/L as test wells, with the same volumes as the original culture solutions.
• 1) The cells were collected, resuspended in a PBS balanced salt solution, and counted; and the cells were mixed with the 3D hydrogel stock solution and prepared into hydrogel cell suspensions with proper density. • 2) The 3D hydrogel cell suspension (5 × 10^^4 cells) was added to each well in 96-well cell culture plates with low surface adsorption, and the plates were incubated at 37 °C with 5% CO2 for 20 min. • 3) The complete culture medium containing the compound prepared in 1.2 with an equal volume to that of the cell suspension in step 2 was added to the 96-well cell culture plate. • 4) The cells were cultured at 37 °C in a 5% CO2 incubator for 96 h.
• 1) The complete culture medium in the upper layer above the hydrogel was pipetted from each well of the 96-well cell culture plate with a vacuum pump or a manual pipette with careful processing to avoid breaking the hydrogel lower layer. • 2) The complete culture medium containing the CCK-8 substrate with an equal volume to that of the original hydrogel was added to each well. • 3) The plate was cultured at 37 °C with 5% CO2 for 1 h. • 4) The 96-well cell culture plate was placed in a microplate reader, and the values of A450 and A630 were separately detected.
Data analysis: The relative inhibitory level was analyzed by using Excel software, and the survival rates of cells under different compound culture conditions were obtained; [formula]
High-reading control well: cells + dimethylsulfoxide; background well: cell-free hydrogel. Table 7. Cell proliferation inhibitory activity of some of example compounds

[2] = In-vivo pharmacokinetic study in beagle dogs; design: species or system male beagle dogs; details: dog, plasma, po, intragastric administration
Experimental: 1.1 Instrument: high-performance liquid chromatograph: SHIMADZU LC-30AD; mass spectrum: AB SCIEX mass spectrometer Triple Quad 5500; all measured data were calculated and processed using Microsoft Excel, and relevant pharmacokinetic parameters were calculated using WinNonlin software. […] Chromatographic column: Agilent EC-C18 2.7 µm (50 × 2.1 mm); column temperature: 40 °C; mobile phase A: water (0.1% formic acid); mobile phase B: acetonitrile; flow rate: 0.60 mL/min; gradient elution; elution gradient: 0.30 min: 5% B; 1.90 min: 95% B; 2.20 min: 95% B; 2.21 min: 5% B; 2.50 min: stop. Sample injection amount: 10 µL.
1.2 Animals: 3 male beagle dogs were used. The body weight range was 8-15 kg. The beagle dogs were fasted 12 h before administration and 4 h after administration, and given ad libitum access to water during the assay.
1.3 Vehicle: 0.5% HPMC (hydroxypropyl methylcellulose) + 0.4% Tween80 + 99.1% water.
After the intragastric administration, blood samples were taken at 0.25 h, 0.5 h, 1 h, 2 h, 4 h, 6 h, 8 h, 10 h, 12 h, 24 h, and 48 h. The blood collection mode is as follows: venipuncture was used, EDTA-K2 was used as an anticoagulation agent, the collected blood sample was transferred into a microcentrifuge tube containing the anticoagulation agent, and the tube was centrifuged at 4 °C and 2000 g for 10 min to separate the plasma. All plasma samples collected were stored at -75±15 °C until analysis.
1.4 Plasma sample pretreatment: 50 µL of the plasma sample was taken, and 200 µL of an internal standard solution prepared with acetonitrile was added for precipitation; subsequently, the sample was vortexed for 1 min and mixed homogenously; the precipitated sample was centrifuged at 4 °C and 3900 rpm for 15 min; the supernatant was pipetted, and water was added for 3-fold dilution; 10 µL of the sample was injected; and quantitative analysis was performed by adopting a liquid chromatography-mass spectrometry technology.
All measured data were collected and processed by the relevant software, and pharmacokinetic parameters were calculated using Winnonlin software. Pharmacokinetic parameters of some compounds in the examples in beagle dogs

[3] = male, 1 mg/kg, read-out: AUC0-48h

Compound	viability at 0.0001 µM [1]	viability at 0.001 µM [1]	viability at 0.01 µM [1]	viability at 0.1 µM [1]	viability at 1 µM [1]	half-life ([2]; male, beagle, 0.6 mg/kg)	AUC(0-inf) ([2]; male, 0.6 mg/kg)	Cmax ([2]; male, 0.6 mg/kg)	Tmax ([2]; male, 0.6 mg/kg)	AUC(0-t) ([2]; male, 0.6 mg/kg, read-out: AUC0-48h)	half-life ([2]; male, beagle, 1 mg/kg)	AUC(0-inf) ([2]; male, 1 mg/kg)	Cmax ([2]; male, 1 mg/kg)	Tmax ([2]; male, 1 mg/kg)	AUC(0-t) [2, 3]	AUC(0-inf) ([2]; 1 mg/kg)	Cmax ([2]; 1 mg/kg)	Tmax ([2]; 1 mg/kg)	half-life ([2]; 1 mg/kg)	AUC(0-t) at 48 h ([2]; 1 mg/kg, read-out: AUC0-48h)
COc1cc2c(cc1S(=O)(=O)Nc1noc3cc(Cn4cccn4)nc(OC)c13)CCCC2 [Example 2, N-(6-((1H-Pyrazol-1-yl)methyl)-4-methoxyisoxazolo[4,5-c]pyridin-3-yl)-3-methoxy-5,6,7,8-tetrahydronaphthalene-2-sulfonamide]	63%	51%	43%	43%	40%	173 h	379000 ng·h/mL	1800 ng/mL	4 h	66500 ng·h/mL										
COc1nc(Cn2cccn2)cc2onc(NS(=O)(=O)c3cccc4c3OCCO4)c12 [Example 4, N-(6-((1H-Pyrazol-1-yl)methyl)-4-methoxyisoxazolo[4,5-c]pyridin-3-yl)-2,3-dihydrobenzo[b][1,4]dioxine-5-sulfonamide]	75%	61%	41%	37%	29%															
COc1nc(Cn2cccn2)cc2onc(NS(=O)(=O)c3cccc4ccoc34)c12 [Example 5, N-(6-((1H-Pyrazol-1-yl)methyl)-4-methoxyisoxazolo[4,5-c]pyridin-3-yl)benzofuran-7-sulfonamide]	80%	85%	69%	54%	35%															
COc1ccc2c(c1S(=O)(=O)Nc1noc3cc(Cn4cccn4)nc(OC)c13)OCC2 [Example 9, N-(6-((1H-Pyrazol-1-yl)methyl)-4-methoxyisoxazolo[4,5-c]pyridin-3-yl)-6-methoxy-2,3-dihydrobenzofuran-7-sulfonamide]	63%	48%	41%	38%	32%						≤ 15 h	122000 ng·h/mL	9230 ng/mL	1.33 h	114000 ng·h/mL					
COc1ccc2ccoc2c1S(=O)(=O)Nc1noc2cc(Cn3cccn3)nc(OC)c12 [Example 10, N-(6-((1H-Pyrazol-1-yl)methyl)-4-methoxyisoxazolo[4,5-c]pyridin-3-yl)-6-methoxybenzofuran-7-sulfonamide]	62%	45%	39%	33%	29%						≤ 15 h	47500 ng·h/mL	6250 ng/mL	0.83 h	46700 ng·h/mL					
COc1cc2c(cc1S(=O)(=O)Nc1noc3cc(Cn4cccn4)nc(OC)c13)OCC2 [Example 59, N-(6-((1H-Pyrazol-1-yl)methyl)-4-methoxyisoxazolo[4,5-c]pyridin-3-yl)-5-methoxy-2,3-dihydrobenzofuran-6-sulfonamide]											≤ 15 h	55900 ng·h/mL	8380 ng/mL	0.67 h	55500 ng·h/mL					
COc1cc2c(cc1S(=O)(=O)Nc1noc3cc(Cn4cccn4)nc(OC)c13)CCCO2 [Example 76, N-(6-((1H-Pyrazol-1-yl)methyl)-4-methoxyisoxazolo[4,5-c]pyridin-3-yl)-7-methoxy-3,4-dihydro-1H-benzopyran-6-sulfonamide]																749000 ng·h/mL	14000 ng/mL	2 h	45.4 h	225000 ng·h/mL

From patent EP4692094A1 (Beijing Konruns Pharmaceutical Co., Ltd., priority 2023, dated 2024)
